Literature values as cited in patent US20250064759A1, “CONTAINER COMPRISING A LISDEX[…] SOLUTION” (LABOMED PHARMACEUTICAL COMPANY S.A., priority 2021, published 2025).

Conditions: in vivo

## C[C@@H](Cc1ccccc1)NC(=O)[C@@H](N)CCCCN [Lisdexamfetamine, L-lysine-d-amfetamine]
  period over which dexamfetamine is delivered: about 8 hours
